The source made the active and inactive calls. The rule behind the calls is not given here.
Legend:
[1] = molecular target: T1, von Hippel-Lindau disease tumor suppressor/Phosphatidylinositol 4,5-bisphosphate 3-kinase catalytic subunit beta isoform (Homo sapiens, UniProt P42338+P40337); assay: PROTAC activity at PI3K-p110beta/VHL in human A549/DDP cells assessed as induction of PI3K-p110beta degradation incubated for 24 hrs by Western blot analysis; assay type: cell-based; conditions: dose 0.04-50 µM
[2] = test system: MCF7/ADM; assay: Antitumor activity against human MCF7/ADM cells xenografted in BALB/c mouse assessed as increase in CHOP expression in tumor at 50 mg/kg, ip by Western blot analysis; assay type: functional, organism-based
[3] = molecular target: T2, ATP-dependent translocase ABCB1 (Homo sapiens, UniProt P08183); assay: Inhibition of P-gp in human MCF7/ADM cells assessed as increase in intracellular adriamycin accumulation at 6.25 to 25 uM incubated for 24 hrs by flow cytometry analysis; assay type: cell-based; conditions: dose 6.25-25 µM
[4] = Toxicity in BALB/c mouse xenografted with human MCF7/ADM cells assessed as change in WBC count at 50 mg/kg, ip; assay type: organism-based; conditions: in vivo
[5] = test system: A549/CDDP; assay: Downregulation of p-gp level in human A549/DDP cells at 6.25 to 25 uM incubated for 24 hrs; assay type: functional, cell-based; conditions: dose 6.25-25 µM
[6] = Toxicity in BALB/c mouse xenografted with human MCF7/ADM cells assessed as body weight loss at 50 mg/kg, ip; assay type: organism-based; conditions: in vivo
[7] = Antitumor activity against human MCF7/ADM cells assessed as cell viability incubated for 24 hrs by MTT assay; assay type: functional, cell-based
[8] = test system: MCF7/ADM; assay: Activation of unfolded protein response in human MCF7/ADM cells at 25 uM incubated for 24 hrs by PROTEOSTATR aggresome dye based fluorescent microscopy; assay type: functional, cell-based
[9] = test system: A549/CDDP; assay: Induction of ROS level in human A549/DDP cells at 25 uM measured for 24 hrs by MitoSOX staining based analysis; assay type: functional, cell-based
[10] = Toxicity in BALB/c mouse xenografted with human MCF7/ADM cells assessed as heart damage at 50 mg/kg, ip by H and E staining based analysis; assay type: organism-based; conditions: in vivo
[11] = molecular target: T1, von Hippel-Lindau disease tumor suppressor/Phosphatidylinositol 4,5-bisphosphate 3-kinase catalytic subunit beta isoform; assay: PROTAC activity at PI3K-p110beta/VHL in human A549/DDP cells assessed as induction of PI3K-p110beta degradation at 0.04 to 50 uM by Western blot analysis; assay type: cell-based; conditions: dose 0.04-50 µM, time 24.0 hrs
[12] = test system: MCF7/ADM; assay: Downregulation of p-gp level in human MCF7/ADM cells at 6.25 to 25 uM incubated for 24 hrs; assay type: functional, cell-based; conditions: dose 6.25-25 µM
[13] = test system: MCF7; assay: Antitumor activity against human MCF7 cells assessed as cell viability incubated for 24 hrs by MTT assay; assay type: functional, cell-based; conditions: MCF7, 24 h
[14] = molecular target: T1, von Hippel-Lindau disease tumor suppressor/Phosphatidylinositol 4,5-bisphosphate 3-kinase catalytic subunit beta isoform; assay: PROTAC activity at PI3K-p110beta/VHL in human A549/DDP cells assessed as reduction in PI3K-p110beta level by Western blot analysis; assay type: cell-based; conditions: time <= 48.0 hrs
[15] = test system: A549/CDDP; assay: Upregulation of PERK expression in human A549/DDP cells at 0.25 to 25 uM incubated for 24 hrs by Western blot analysis; assay type: functional, cell-based; conditions: dose 0.25-25 µM
[16] = molecular target: von Hippel-Lindau disease tumor suppressor/Phosphatidylinositol 4,5-bisphosphate 3-kinase catalytic subunit alpha isoform (Homo sapiens, UniProt P42336+P40337); assay: PROTAC activity at PI3K-p110alpha/VHL in human A549/DDP cells assessed as induction of PI3K-p110alpha degradation at 0.04 to 50 uM by Western blot analysis; assay type: cell-based; conditions: dose 0.04-50 µM, time 24.0 hrs
[17] = molecular target: T1, von Hippel-Lindau disease tumor suppressor/Phosphatidylinositol 4,5-bisphosphate 3-kinase catalytic subunit beta isoform; assay: PROTAC activity at PI3K-p110beta/VHL in human A549/DDP cells assessed as induction of PI3K-p110beta degradation at 25 uM measured for 24 hrs in presence of MG132 by Western blot analysis; assay type: cell-based
[18] = molecular target: T2, ATP-dependent translocase ABCB1; assay: Inhibition of P-gp in human MCF7/ADM cells assessed as increase in intracellular Rh123 accumulation at 6.25 to 25 uM incubated for 24 hrs by flow cytometry analysis; assay type: cell-based; conditions: dose 6.25-25 µM
[19] = Toxicity in BALB/c mouse xenografted with human MCF7/ADM cells assessed as spleen damage at 50 mg/kg, ip by H and E staining based analysis; assay type: organism-based; conditions: in vivo
[20] = test system: A549/CDDP; assay: Upregulation of p-IRE1 expression in human A549/DDP cells at 0.25 to 25 uM incubated for 24 hrs by Western blot analysis; assay type: functional, cell-based; conditions: dose 0.25-25 µM
[21] = test system: MCF7/ADM; assay: Antitumor activity against human MCF7/ADM cells xenografted in BALB/c mouse assessed as increase in cleaved caspase-9 expression in tumor at 50 mg/kg, ip by Western blot analysis; assay type: functional, organism-based
[22] = test system: A549/CDDP; assay: Upregulation of ATF6 expression in human A549/DDP cells at 0.25 to 25 uM incubated for 24 hrs by Western blot analysis; assay type: functional, cell-based; conditions: dose 0.25-25 µM
[23] = Toxicity in BALB/c mouse xenografted with human MCF7/ADM cells assessed as change in BUN level at 50 mg/kg, ip; assay type: organism-based; conditions: in vivo
[24] = test system: A549/CDDP; assay: Induction of apoptosis in human A549/DDP cells assessed as increase in cleaved caspase-9 expression at 12.5 uM incubated for 24 hrs by Western blot analysis; assay type: functional, cell-based
[25] = test system: MCF7/ADM; assay: Upregulation of PERK expression in human MCF7/ADM cells at 0.25 to 25 uM incubated for 24 hrs by Western blot analysis; assay type: functional, cell-based; conditions: dose 0.25-25 µM
[26] = test system: MCF7/ADM; assay: Induction of oxidative stress in human MCF7/ADM cells at 25 uM measured for 24 hrs; assay type: functional, cell-based
[27] = test system: MCF7/ADM; assay: Antitumor activity against human MCF7/ADM cells xenografted in BALB/c mouse assessed as downregulation of p110alpha level in tumor at 50 mg/kg, ip; assay type: functional, organism-based
[28] = test system: A549/CDDP; assay: Induction of oxidative stress in human A549/DDP cells at 25 uM measured for 24 hrs; assay type: functional, cell-based
[29] = molecular target: T1, von Hippel-Lindau disease tumor suppressor/Phosphatidylinositol 4,5-bisphosphate 3-kinase catalytic subunit beta isoform; assay: PROTAC activity at PI3K-p110beta/VHL in human MCF7/ADM cells assessed as reduction in PI3K-p110beta level at 25 uM measured for 24 hrs by Western blot analysis; assay type: cell-based
[30] = test system: MCF7/ADM; assay: Induction of apoptosis in human MCF7/ADM cells assessed as decrease in bax expression at 12.5 uM incubated for 24 hrs by Western blot analysis; assay type: functional, cell-based
[31] = Toxicity in BALB/c mouse xenografted with human MCF7/ADM cells assessed as change in ALT level at 50 mg/kg, ip; assay type: organism-based; conditions: in vivo
[32] = molecular target: T1, von Hippel-Lindau disease tumor suppressor/Phosphatidylinositol 4,5-bisphosphate 3-kinase catalytic subunit beta isoform; assay: PROTAC activity at PI3K-p110beta/VHL in human MCF7/ADM cells assessed as induction of PI3K-p110beta degradation at 25 uM measured for 24 hrs in presence of MG132 by Western blot analysis; assay type: cell-based
[33] = molecular target: T1, von Hippel-Lindau disease tumor suppressor/Phosphatidylinositol 4,5-bisphosphate 3-kinase catalytic subunit beta isoform; assay: PROTAC activity at PI3K-p110beta/VHL in human A549/DDP cells assessed as induction of PI3K-p110beta degradation at 25 uM measured for 24 hrs in presence of TGX221 by Western blot analysis; assay type: cell-based
[34] = Toxicity in BALB/c mouse xenografted with human MCF7/ADM cells assessed as change in creatinine level at 50 mg/kg, ip; assay type: organism-based; conditions: in vivo
[35] = test system: MCF7/ADM; assay: Antitumor activity against human MCF7/ADM cells xenografted in BALB/c mouse assessed as increase in PERK expression in tumor at 50 mg/kg, ip by Western blot analysis; assay type: functional, organism-based

T2 sequence (P08183 whole entry): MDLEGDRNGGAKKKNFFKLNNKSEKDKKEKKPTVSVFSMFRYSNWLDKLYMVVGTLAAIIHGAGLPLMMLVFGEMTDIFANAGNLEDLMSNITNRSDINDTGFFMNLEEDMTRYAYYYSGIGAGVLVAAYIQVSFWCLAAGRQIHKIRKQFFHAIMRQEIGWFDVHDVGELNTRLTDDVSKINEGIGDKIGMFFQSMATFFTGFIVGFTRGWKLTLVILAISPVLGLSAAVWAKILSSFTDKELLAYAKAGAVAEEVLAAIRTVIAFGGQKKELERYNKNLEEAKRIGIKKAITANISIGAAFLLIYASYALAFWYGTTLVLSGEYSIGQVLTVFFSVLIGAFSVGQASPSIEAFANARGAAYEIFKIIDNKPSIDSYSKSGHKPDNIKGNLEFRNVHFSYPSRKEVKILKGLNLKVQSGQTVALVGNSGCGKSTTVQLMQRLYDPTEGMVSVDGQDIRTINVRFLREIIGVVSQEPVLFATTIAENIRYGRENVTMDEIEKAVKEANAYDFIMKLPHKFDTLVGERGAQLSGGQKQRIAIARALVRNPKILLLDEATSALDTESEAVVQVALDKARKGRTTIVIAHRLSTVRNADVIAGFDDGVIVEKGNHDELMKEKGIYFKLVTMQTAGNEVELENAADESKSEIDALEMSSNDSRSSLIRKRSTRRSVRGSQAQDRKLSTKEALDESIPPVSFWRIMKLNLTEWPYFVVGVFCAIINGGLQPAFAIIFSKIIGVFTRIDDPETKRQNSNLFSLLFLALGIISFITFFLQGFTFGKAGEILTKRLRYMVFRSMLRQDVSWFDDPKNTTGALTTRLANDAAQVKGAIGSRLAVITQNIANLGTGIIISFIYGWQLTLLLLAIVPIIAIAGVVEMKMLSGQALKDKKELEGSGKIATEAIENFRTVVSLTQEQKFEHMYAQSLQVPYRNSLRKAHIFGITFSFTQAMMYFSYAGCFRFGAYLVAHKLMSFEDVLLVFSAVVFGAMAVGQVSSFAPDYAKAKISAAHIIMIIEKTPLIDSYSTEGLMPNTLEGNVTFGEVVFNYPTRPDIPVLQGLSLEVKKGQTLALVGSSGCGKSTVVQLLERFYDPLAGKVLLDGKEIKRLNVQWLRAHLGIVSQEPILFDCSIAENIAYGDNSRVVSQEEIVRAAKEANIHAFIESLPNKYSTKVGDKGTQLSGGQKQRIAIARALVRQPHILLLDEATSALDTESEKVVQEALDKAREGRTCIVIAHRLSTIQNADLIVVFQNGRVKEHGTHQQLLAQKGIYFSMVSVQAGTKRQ
T1 sequence (P40337 whole entry, looked up, canonical isoform): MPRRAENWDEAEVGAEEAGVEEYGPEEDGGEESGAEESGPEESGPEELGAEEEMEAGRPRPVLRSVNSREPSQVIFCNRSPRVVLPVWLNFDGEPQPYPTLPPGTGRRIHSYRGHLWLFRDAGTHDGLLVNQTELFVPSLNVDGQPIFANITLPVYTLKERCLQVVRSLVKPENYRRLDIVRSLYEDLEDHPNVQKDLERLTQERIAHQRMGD
T1 sequence (P42338 whole entry, looked up, canonical isoform): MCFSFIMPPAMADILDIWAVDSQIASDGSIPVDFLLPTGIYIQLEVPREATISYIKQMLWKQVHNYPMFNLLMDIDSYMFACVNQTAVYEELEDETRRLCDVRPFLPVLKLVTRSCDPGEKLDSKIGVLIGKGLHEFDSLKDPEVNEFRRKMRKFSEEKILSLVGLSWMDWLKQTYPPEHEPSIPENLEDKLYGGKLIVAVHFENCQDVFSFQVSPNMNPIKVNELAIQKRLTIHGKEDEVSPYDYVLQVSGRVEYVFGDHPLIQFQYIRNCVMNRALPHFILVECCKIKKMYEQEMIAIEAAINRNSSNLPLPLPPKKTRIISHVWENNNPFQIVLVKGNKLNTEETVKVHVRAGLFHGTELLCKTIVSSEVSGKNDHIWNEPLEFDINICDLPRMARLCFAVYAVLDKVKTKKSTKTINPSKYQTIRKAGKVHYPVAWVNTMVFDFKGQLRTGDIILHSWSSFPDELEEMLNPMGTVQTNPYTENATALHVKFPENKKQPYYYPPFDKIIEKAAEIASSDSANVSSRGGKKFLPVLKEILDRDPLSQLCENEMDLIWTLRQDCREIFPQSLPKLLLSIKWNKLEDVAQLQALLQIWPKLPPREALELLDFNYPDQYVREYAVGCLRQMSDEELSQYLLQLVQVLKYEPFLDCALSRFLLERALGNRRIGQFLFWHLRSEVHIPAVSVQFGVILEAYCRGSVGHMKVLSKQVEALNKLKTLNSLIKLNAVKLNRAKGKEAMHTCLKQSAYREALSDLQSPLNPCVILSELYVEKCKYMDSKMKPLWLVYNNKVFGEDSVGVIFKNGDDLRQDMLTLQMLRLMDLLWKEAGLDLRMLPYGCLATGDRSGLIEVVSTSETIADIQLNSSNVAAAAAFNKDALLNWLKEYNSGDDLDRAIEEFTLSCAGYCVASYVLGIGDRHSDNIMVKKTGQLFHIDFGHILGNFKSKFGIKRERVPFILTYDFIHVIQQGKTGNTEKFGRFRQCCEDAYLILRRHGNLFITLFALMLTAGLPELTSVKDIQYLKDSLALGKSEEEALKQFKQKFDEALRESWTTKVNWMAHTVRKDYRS
Chain of von Hippel-Lindau disease tumor suppressor/Phosphatidylinositol 4,5-bisphosphate 3-kinase catalytic subunit alpha isoform (P40337 whole entry, looked up, canonical isoform): as the sequence (P40337 whole entry, looked up, canonical isoform) above
Chain of von Hippel-Lindau disease tumor suppressor/Phosphatidylinositol 4,5-bisphosphate 3-kinase catalytic subunit alpha isoform (P42336 whole entry, looked up, canonical isoform): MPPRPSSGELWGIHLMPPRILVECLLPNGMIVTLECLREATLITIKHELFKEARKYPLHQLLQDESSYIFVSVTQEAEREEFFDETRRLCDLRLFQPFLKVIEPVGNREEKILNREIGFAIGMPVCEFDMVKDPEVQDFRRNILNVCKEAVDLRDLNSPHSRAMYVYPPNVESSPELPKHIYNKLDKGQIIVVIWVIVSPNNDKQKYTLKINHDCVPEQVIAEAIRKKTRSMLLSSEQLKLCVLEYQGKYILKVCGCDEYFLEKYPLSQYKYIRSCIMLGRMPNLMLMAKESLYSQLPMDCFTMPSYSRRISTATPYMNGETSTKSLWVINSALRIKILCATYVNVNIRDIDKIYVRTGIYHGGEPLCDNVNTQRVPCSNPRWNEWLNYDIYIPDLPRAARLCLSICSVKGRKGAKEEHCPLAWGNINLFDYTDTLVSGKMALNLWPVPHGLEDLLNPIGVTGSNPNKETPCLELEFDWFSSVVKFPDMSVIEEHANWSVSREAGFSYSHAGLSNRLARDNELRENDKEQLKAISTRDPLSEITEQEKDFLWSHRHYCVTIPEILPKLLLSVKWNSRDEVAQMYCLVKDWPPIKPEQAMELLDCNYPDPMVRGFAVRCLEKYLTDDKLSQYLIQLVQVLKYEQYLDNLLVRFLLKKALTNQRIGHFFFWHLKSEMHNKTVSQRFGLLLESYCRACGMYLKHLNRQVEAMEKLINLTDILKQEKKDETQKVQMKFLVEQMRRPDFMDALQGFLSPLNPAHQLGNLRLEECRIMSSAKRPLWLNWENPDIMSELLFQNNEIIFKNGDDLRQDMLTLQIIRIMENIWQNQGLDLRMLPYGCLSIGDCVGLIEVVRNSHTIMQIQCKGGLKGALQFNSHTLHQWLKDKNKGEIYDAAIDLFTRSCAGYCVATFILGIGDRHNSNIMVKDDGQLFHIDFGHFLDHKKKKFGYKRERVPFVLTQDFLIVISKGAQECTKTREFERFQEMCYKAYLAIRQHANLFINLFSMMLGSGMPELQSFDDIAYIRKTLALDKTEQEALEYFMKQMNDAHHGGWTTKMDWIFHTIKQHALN

Structure (SMILES) | Activity [1] | Activity [2] | inhibition (INH) [3] | Activity [4] | Activity [5] | Activity [6] | IC50 [7] | Activity [8] | Activity [9] | Activity [10] | Activity [11] | Activity [12] | IC50 [13] | Activity [14] | Activity [15] | Activity [16] | Activity [17] | inhibition (INH) [18] | Activity [19] | Activity [20] | other results
Cc1cc(C(C)Nc2ccccc2C(=O)NCCOCCOCCC(=O)N[C@H](C(=O)N2C[C@H](O)C[C@H]2C(=O)NCc2ccc(-c3scnc3C)cc2)C(C)(C)C)c2nc(N3CCOCC3)cc(=O)n2c1 (stereo not given in full) | Dose-dependent-effect | Active | Active | Non-toxic | Active | Non-toxic | 30.2 µM | Active | Active | Non-toxic | Time-dependent-effect | Active | 33.9 µM | Time-dependent-effect | Active | Time-dependent-effect | Active | Active | Non-toxic | Active | Activity [21]: Active; Activity [22]: Active; Activity [23]: Non-toxic; Activity [24]: Active; Activity [25]: Active; Activity [26]: Active; Activity [27]: Active; Activity [28]: Active; Activity [29]: Active; Activity [30]: Active; Activity [31]: Non-toxic; Activity [32]: Active; Activity [33]: inactive; Activity [34]: Non-toxic; Activity [35]: Active
Cc1cc(C(C)Nc2ccccc2C(=O)NCCCCCCC(=O)N[C@H](C(=O)N2C[C@H](O)C[C@H]2C(=O)NCc2ccc(-c3scnc3C)cc2)C(C)(C)C)c2nc(N3CCOCC3)cc(=O)n2c1 (stereo not given in full) | Dose-dependent-effect | Active | Active | Non-toxic | Active | Non-toxic | 38.7 µM | Active | Active | Non-toxic | Time-dependent-effect | Active | 54 µM | Time-dependent-effect | Active | Time-dependent-effect | Active | Active | Non-toxic | Active | Activity [21]: Active; Activity [22]: Active; Activity [23]: Non-toxic; Activity [24]: Active; Activity [25]: Active; Activity [26]: Active; Activity [27]: Active; Activity [28]: Active; Activity [29]: Active; Activity [30]: Active; Activity [31]: Non-toxic; Activity [32]: Active; Activity [33]: inactive; Activity [34]: Non-toxic; Activity [35]: Active

Source: ChEMBL document CHEMBL6134905, “Double Swords in One: Novel Selective PI3K/110β PROTAC Degraders for the Treatment of Multidrug-Resistant Cancer by Activating ERS and Inhibiting P-gp” (J Med Chem, 2025)
